# Laboratory results taken from article PMC3871589, “Evaluation of STAT3 Signaling in ALDH+ and ALDH+/CD44+/CD24− Subpopulations of Breast Cancer Cells” (PLoS ONE, 2013).
# Legend:
# Fes = Fes (Homo sapiens, UniProt P07332); test: Kinase profiler assay, Fes; assay type: biochemical; details: 10 concentrations, 100 µM highest; Table S3
# Description: (§1) The effects of LLL12 on twenty six purified human protein kinases were performed at the Millipore UK Limited (Dundee, UK) and Reaction Biology Corp. (Malvern, PA) using the Kinase profiler assay. Assays contained a peptide substrate, purified recombinant human protein kinases to be tested, and gamma-labeled ATP, magnesiumion. Radioactive phosphorylated product was measured and quantitated via a scintillation counter.
# PYK2 = PYK2 (Homo sapiens, UniProt Q14289); test: Kinase profiler assay, PYK2; assay type: biochemical; details: 10 concentrations, 100 µM highest; Table S3
# PYK2, sequence (Q14289 whole entry): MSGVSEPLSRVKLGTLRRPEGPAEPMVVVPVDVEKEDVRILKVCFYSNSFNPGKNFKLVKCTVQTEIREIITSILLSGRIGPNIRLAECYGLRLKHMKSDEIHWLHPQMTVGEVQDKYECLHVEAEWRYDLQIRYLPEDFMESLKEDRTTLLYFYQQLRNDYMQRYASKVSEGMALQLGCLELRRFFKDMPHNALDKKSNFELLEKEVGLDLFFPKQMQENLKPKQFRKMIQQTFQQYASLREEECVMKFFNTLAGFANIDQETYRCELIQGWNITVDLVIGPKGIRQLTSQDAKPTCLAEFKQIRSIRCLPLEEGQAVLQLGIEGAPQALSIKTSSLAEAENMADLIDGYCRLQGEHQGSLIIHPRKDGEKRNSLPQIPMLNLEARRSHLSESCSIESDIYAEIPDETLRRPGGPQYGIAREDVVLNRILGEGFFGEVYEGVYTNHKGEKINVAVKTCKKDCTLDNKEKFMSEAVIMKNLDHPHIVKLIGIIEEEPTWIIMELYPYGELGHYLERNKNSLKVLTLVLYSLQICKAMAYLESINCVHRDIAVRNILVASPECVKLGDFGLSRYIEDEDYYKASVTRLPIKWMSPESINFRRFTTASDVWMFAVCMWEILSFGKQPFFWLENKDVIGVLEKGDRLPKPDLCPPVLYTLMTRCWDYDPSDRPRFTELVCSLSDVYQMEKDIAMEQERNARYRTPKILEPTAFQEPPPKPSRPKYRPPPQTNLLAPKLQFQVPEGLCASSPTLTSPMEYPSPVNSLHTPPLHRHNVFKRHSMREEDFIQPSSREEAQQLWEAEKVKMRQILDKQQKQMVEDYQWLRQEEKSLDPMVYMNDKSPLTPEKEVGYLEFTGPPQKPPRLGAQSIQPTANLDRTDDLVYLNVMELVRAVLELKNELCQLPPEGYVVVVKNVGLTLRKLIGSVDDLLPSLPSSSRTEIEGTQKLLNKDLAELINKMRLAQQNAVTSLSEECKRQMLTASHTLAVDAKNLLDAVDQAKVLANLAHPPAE
# Description: as §1
# Fyn = Fyn (Homo sapiens, UniProt P06241); test: Kinase profiler assay, Fyn; assay type: biochemical; details: 10 concentrations, 100 µM highest; Table S3
# Fyn, sequence (P06241 whole entry): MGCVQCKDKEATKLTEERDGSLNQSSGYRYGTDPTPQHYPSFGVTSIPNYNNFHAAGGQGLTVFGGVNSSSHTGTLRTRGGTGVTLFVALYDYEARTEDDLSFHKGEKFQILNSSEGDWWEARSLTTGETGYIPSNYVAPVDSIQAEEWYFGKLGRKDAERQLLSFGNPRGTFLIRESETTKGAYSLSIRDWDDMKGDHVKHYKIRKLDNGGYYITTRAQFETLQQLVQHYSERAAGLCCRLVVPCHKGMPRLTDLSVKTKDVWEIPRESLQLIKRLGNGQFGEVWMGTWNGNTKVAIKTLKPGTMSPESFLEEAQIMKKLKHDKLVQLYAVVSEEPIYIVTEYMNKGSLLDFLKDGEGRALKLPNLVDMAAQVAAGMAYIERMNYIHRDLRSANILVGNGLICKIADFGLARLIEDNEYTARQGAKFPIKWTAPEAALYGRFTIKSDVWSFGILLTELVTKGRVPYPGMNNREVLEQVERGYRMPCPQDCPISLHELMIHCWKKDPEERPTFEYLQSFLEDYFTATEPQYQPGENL
# Description: as §1
# Yes = Yes (Homo sapiens, UniProt P07947); test: Kinase profiler assay, Yes; assay type: biochemical; details: 10 concentrations, 100 µM highest; Table S3
# Yes, sequence (P07947 whole entry): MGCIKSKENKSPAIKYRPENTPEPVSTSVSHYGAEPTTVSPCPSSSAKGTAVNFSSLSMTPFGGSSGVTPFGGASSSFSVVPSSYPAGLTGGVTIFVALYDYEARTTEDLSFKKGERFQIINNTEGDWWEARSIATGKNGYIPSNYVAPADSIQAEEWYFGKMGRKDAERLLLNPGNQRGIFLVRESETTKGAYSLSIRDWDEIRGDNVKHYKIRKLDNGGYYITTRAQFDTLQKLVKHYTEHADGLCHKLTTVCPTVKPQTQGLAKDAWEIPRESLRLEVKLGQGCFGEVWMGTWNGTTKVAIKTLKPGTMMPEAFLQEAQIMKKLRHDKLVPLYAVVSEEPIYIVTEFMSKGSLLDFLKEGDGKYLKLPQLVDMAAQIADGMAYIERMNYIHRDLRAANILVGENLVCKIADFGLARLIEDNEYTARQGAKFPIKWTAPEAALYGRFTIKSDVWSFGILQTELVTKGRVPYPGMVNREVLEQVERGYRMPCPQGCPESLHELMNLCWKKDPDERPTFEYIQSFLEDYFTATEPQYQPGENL
# Description: as §1
# c-Raf = c-Raf (Homo sapiens, UniProt P04049); test: Kinase profiler assay, c-Raf; assay type: biochemical; details: bound stated jointly for the other protein kinases; Table S3
# c-Raf, sequence (P04049 whole entry): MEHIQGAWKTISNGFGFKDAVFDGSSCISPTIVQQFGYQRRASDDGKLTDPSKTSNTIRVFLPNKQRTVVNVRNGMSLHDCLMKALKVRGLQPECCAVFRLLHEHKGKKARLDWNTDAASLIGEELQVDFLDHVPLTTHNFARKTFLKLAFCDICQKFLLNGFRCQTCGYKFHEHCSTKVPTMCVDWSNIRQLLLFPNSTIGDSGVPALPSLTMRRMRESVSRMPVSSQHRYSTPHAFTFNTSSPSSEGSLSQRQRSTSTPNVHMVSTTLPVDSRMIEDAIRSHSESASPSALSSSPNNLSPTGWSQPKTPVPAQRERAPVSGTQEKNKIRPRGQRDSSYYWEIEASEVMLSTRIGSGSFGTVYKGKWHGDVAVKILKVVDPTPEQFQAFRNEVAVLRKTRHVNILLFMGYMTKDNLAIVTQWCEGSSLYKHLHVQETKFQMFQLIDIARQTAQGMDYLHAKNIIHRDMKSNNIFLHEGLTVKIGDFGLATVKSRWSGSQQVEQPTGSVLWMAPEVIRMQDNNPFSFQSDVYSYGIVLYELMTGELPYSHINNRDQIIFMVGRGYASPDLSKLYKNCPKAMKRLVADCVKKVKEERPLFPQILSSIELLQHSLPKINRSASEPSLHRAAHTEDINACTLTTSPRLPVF
# Description: as §1
# [1] = tested on: ERK 1/2 (T202/Y204) phosphorylation; test: Western blot of ERK phosphorylation in un-separated breast cancer cells; assay type: cell-based, human; details: 10 µM, 24 hours
# Description: (§2) After sorting by flow cytometry, ALDH^+ and ALDH^+/CD44^+/CD24^− stem-like cells were cultured in serum-free stem cell medium in ultra-low attachment six-well plates (Corning) to maintain cancer stem cell characteristics. ALDH^−, ALDH^−/CD44^+/CD24^+cells and un-separated cells were cultured in regular medium and replaced with identical stem cell medium for three days before being harvested. To assess the effects of STAT3 inhibitors, ALDH^+ and ALDH^+/CD44^+/CD24^− subpopulations of breast cancer cells were treated with LLL12 (5 µmol/L) of or static (10 µmol/L) for 24 hours. STAT3, or control GFP shRNA lentivirus (CTL ShRNA) was introduced into ALDH^+ breast cancer stem-like cells for 48 hours, then followed by selection with puromycin (0.2 µg/ml) for 72 hours. Antibodies (Cell Signaling Tech.) against phospho-specific STAT3 (Tyrosine 705) (P-STAT3, Y705), ERK1/2 (Threonine 202/Tyrosine 204), cleaved Poly (ADP-ribose) polymerase (PARP), ALDH1, cleaved caspase-3, and GAPDH were used for western blots.
# (§3) LLL12 was synthesized in Dr. Pui-Kai Li’s laboratory (College of Pharmacy, The Ohio State University). Un-separated cells were treated with 10 µM of LLL12 or DMSO for 24 hours, and the phosphorylation of STAT3 (Y705), and ERK 1/2 (T202/Y204), and expression of STAT3 downstream genes, cleaved caspase-3, and PARP were detected by Western blots. (JPG) Click here for additional data file.
# [2] = tested on: MDA-MB-231, SK-BR-3, and SUM159 breast cancer cell lines; test: Apoptosis (cleaved PARP and Caspase-3) in un-separated breast cancer cells; assay type: cell-based, human; details: un-separated MDA-MB-231, SK-BR-3, SUM159 cells; 10 µM, 24 hours
# Description: as §2, §3
# [3] = tested on: mTOR and AKT phosphorylation; test: mTOR and AKT phosphorylation in ALDH+ cells; assay type: cell-based, human; details: ALDH+ subpopulation, all three cell lines; 5 µmol/L, 24 hours
# Description: as §2
# [4] = tested on: ALDH+ subpopulations of SK-BR-3, MDA-MB-231, and SUM159; test: Tumorsphere formation, ALDH+ subpopulations; assay type: cell-based, human; details: 2.5–10 µmol/L, 10 to 15 days
# Description: ALDH^+ and ALDH^+/CD44^+/CD24^− cells were plated as single cells in ultra-low attachment six-well plates at a density of 250, 500, 1000 or 50,000 viable cells/well as previously described. On the second day after seeding, the ALDH^+ cancer cells were treated with 2.5–10 µmol/L of LLL12 or Stattic. For tumorsphere forming capacity assay, ALDH^+ or ALDH^− cells were plated as single cells in ultra-low attachment six-well plates at a density of 250, 500 or 1000 viable cells/well. Tumorsphere growth was observed under a microscope 10 to 15 days later.
# [5] = tested on: tumor tissues from breast cancer stem-like cells; test: Immunohistochemistry of tumor tissues (Ki-67, cleaved caspase-3); assay type: in vivo, NOD/SCID mice; details: 5 mg/kg IP daily
# Description: Human breast cancer tissue microarray slides, comprising 95 breast cancer cases, were obtained from the Biochain Institute, Inc.. These slides were baked at 60°C for 1 hour. After deparaffinization, the slides were boiled in a pressure cooker filled with 10 mM Sodium Citrate (PH6.0), and then subjected to immunohistochemistry or immunofluorescence staining. P-STAT3 (Y705) (1∶25; Signaling Technology, Beverly, MA), ALDH1 (1∶100; BD Pharmingen, San Diego, CA), Ki-67 (1∶100; Santa Cruz Biotechnology, Santa Cruz, CA) or cleaved Caspase-3 (1∶100; Signaling Technology, Beverly, MA) antibody were used. For immunofluorescence, the slides were incubated with both primary antibodies and double-stained with Alexa Fluor® 488 conjugated anti-rabbit IgG and Alexa Fluor® 594 conjugated anti-mouse IgG (Cell Signaling Technology, Beverly, MA) overnight at 4°C. The nuclei were subsequently stained with DAPI. For immunohistochemistry, endogenous peroxidase activity was quenched by incubation in 3% hydrogen peroxide for 10 min. After blocking, the slides were incubated with primary antibody overnight at 4°C. The Histostain-Plus Kits (Invitrogen, Carlsbad, CA) were used per the manufacturer’s protocol. […] The staining intensity was scored under microscope as described elsewhere. Significance of correlation between P-STAT3 and ALDH1 was determined using two-sided Pearson Chi-square (χ^2) test.
# [6] = tested on: ALDH+/CD44+/CD24− SUM-159 breast cancer stem-like cells; test: Mouse xenograft of SUM159 ALDH+/CD44+/CD24− cells; assay type: in vivo, NOD/SCID mice; details: 5 mg/kg IP daily; P<0.05
# Description: All animal studies were conducted in accordance with the principles and standard procedures approved by IACUC at the Research Institute at Nationwide Children’s Hospital and the University Committee on the Use and Care of Animals at the University of Michigan. ALDH^+ subpopulations of MDA-MB-231 and ALDH^+/CD44^+/CD24^− subpopulations of SUM-159 breast cancer cells (1×10^5) respectively were injected subcutaneous (s.c.) into the flank area of female Non-obese diabetic (NOD)/Severe combined immunodeficiency (SCID) mice which were purchased from Jackson Laboratory.
# Fes, sequence (P07332 whole entry): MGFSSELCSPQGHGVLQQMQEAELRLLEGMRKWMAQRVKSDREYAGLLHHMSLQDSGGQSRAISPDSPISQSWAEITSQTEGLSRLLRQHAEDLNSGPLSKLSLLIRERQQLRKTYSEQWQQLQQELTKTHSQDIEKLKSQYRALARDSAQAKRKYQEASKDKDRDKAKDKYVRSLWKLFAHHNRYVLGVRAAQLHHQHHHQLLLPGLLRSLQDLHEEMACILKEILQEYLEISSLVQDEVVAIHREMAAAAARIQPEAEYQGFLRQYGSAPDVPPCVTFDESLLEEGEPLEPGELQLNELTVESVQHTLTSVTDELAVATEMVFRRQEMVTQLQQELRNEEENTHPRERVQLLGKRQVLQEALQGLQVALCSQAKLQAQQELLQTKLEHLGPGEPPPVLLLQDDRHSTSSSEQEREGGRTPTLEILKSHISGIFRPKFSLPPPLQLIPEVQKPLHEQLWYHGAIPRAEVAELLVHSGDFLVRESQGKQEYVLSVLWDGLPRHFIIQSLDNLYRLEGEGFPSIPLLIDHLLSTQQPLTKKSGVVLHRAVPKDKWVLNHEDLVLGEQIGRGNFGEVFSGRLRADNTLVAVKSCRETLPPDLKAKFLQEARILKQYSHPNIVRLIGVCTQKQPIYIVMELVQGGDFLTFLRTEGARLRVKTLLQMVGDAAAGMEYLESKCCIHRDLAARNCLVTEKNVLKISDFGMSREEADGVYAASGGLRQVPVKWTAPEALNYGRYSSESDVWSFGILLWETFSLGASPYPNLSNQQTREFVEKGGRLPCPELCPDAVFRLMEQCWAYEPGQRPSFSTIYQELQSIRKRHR
structure (smiles),measurement,setting,value
NS(=O)(=O)c1cccc2c1C(=O)c1cccc(O)c1C2=O [LLL12],IC50,Fes,> 100 µM
same,IC50,PYK2,> 100 µM
same,IC50,Fyn,> 100 µM
same,IC50,Yes,> 100 µM
same,IC50,c-Raf,≥ 77.9 µM
same,phosphorylation of ERK,[1],did not inhibit
same,apoptosis (cleaved PARP and Caspase-3),[2],induced apoptosis
same,mTOR and AKT phosphorylation,[3],almost no effect
same,tumorsphere formation,[4],suppress
same,number of Ki-67 positive cells,[5],decreased
same,number of cleaved caspase-3 positive cells,[5],increased
same,tumor volume,[6],significantly suppressed
